This passage reports inhibition results from paper PMC12131194, “Rational design, synthesis, and evaluation of novel polypharmacological compounds targeting NaV1.5, KV1.5, and K2P channels for atrial fibrillation” (The Journal of Biological Chemistry, 2025).

The target in this assay is T1, Kir2.1 (Rattus norvegicus, UniProt Q64273).
T1 construct: Kir2.1 (KCNJ2, NM_017296); expressed in transfected cells; host or cells: Xenopus laevis oocytes injected with cRNA
T1 sequence (Q64273 1-427): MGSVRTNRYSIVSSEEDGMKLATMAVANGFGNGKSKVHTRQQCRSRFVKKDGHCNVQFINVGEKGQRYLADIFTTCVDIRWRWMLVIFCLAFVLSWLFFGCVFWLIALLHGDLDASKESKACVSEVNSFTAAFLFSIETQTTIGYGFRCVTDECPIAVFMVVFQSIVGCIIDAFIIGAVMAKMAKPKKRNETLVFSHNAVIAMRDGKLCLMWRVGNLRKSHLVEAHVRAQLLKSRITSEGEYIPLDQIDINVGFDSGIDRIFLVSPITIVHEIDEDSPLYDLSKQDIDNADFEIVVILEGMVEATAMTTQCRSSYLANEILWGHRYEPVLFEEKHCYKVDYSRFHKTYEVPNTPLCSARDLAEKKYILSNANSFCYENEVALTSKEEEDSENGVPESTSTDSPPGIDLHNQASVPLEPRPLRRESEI
The assay is described as follows: TEVC selectivity in X. laevis oocytes, Kir2.1. The note with it: mean ± SD, n = 3, read-out: Effect on Kir2.1 (inhibition). Format: cell-based. The protocol: After confirming compound 6f simultaneous blockade of TASK-1, KV1.5, and NaV1.5, other cardiac channels (Kir2.1, TREK-1, TASK-4) were tested for selectivity at 100 μM (Fig. 8).
To obtain X. laevis oocytes, the frogs were anesthetized with 2 g/L of tricaine methanesulfonate, and the ovarian lobes were mechanically separated with forceps. The oocytes were incubated for 120 min in an OR2 solution containing in mM: NaCl 82.5, KCl 2, MgCl2 1, HEPES 5 (pH 7.5) supplemented with 2 mg/ml of collagenase II (Sigma) to remove residual connective tissue and obtain individual oocytes. […]
In order to overexpress the channel in the oocyte, each of the channels to be measured was subcloned (complementary DNA (cDNA); human TASK-1 (KCNK3, NM_002246), h KV1.5 (KCNA5, NM_002234), h NaV1.5 (hH1, M77235), TASK-4/TALK-2 (KCNK17, NM_AF358910), TREK-1 (KCNK2, AF004711) and Kir2.1 (KCNJ2, NM_017296) into pSGEM, pBF1 or pSP64 expression vector, and the cDNA was linearized with NheI or MluI. Complementary RNA (cRNA) was synthesized with the mMESSAGE mMACHINE-Kit (Ambion). The quality of the cRNA was tested on an agarose gel by electrophoresis. cRNA was quantified using a UV-Vis spectrophotometer (NanoDrop 2000). […] After this time, the overexpression of each channel was monitored through electrophysiology. […]

Usually inhibition stands for the change of the read-out against control, counted positive when it falls. On to `CCCCN(CCCC)CC(=O)Nc1ccc(OC)cc1OC` [Compound 6f, 2-(dibutylamine)-N-(2,4-dimethoxiphenyl)acetamide], for which the inhibition at 100 µM was -1.01%.
